Test results as given in US8623879B2, “1-heterocyclyl-1,5-dihydro-pyrazolo[3,4-D] pyrimidin-4-one derivates and their use as PDE9A modulators” (Boehringer Ingelheim International GmbH, priority 2008, dated 2014).

Target: T1, human PDE9A2 (Homo sapiens, UniProt O76083)
T1 construct: made in house; host or cells: Sf9 insect cells (infected); crude lysate used as enzyme source
Experiment: PDE9A2 enzymatic activity assay (scintillation proximity assay, SPA)
Assay type: biochemical
Details: for inhibition at 10 µM: read-out: % inhibition of PDE9A2 (at 10 micromolar concentration), 10 micromolar concentration, values above 100% adjusted to 100%; for IC50: reported only as range 1-100 or 101-1200 nanomolar, specific value lies within range, read-out: IC50 within range [nanomolar (nM)]

T1 sequence (O76083 1-533 isoform O76083-2): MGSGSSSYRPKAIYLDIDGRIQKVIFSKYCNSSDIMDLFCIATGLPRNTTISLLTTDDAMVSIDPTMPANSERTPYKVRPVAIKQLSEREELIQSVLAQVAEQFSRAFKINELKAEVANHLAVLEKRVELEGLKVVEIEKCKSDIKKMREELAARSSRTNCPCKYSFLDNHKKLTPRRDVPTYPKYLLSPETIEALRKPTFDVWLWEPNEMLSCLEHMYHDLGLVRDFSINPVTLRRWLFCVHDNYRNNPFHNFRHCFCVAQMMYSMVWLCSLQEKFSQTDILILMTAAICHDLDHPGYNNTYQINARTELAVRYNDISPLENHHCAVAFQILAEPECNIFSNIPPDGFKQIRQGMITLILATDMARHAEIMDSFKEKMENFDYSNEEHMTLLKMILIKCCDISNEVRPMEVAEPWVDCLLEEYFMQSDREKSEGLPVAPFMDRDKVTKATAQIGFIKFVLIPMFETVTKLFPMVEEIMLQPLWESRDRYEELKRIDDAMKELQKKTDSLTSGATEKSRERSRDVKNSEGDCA

inhibition at 10 µM [%] | IC50 [nM] | SMILES
91 | 101 to 1200 | CC(Cc1nc2c(cnn2C2CCOC2)c(=O)[nH]1)C(F)(F)F (mixture of isomers) [Example 72]
89 | 101 to 1200 | CCC(Cc1nc2c(cnn2C2CCOC2)c(=O)[nH]1)C(F)(F)F (mixture of isomers) [Example 77]
78 | 101 to 1200 | O=c1[nH]c(CC2CCOC2)nc2c1cnn2C1CCOC1 (mixture of isomers) [Example 81]
97 | 1 to 100 | CCC(C)Cc1nc2c(cnn2C2CCOC2)c(=O)[nH]1 (mixture of isomers) [Example 84]
98 | 1 to 100 | CCC(C)Cc1nc2c(cnn2C2CCCOC2)c(=O)[nH]1 (mixture of isomers) [Example 95]
86 | 101 to 1200 | CCC(Cc1nc2c(cnn2C2CCCN(C(C)=O)C2)c(=O)[nH]1)C(F)(F)F (mixture of isomers) [Example 173]
89 | 101 to 1200 | CCC(Cc1nc2c(cnn2C2CCCN(C(=O)c3ccccc3)C2)c(=O)[nH]1)C(F)(F)F (mixture of isomers) [Example 174]
86 | 101 to 1200 | CCC(Cc1nc2c(cnn2C2CCN(C)C2)c(=O)[nH]1)C(F)(F)F (mixture of isomers) [Example 213]
97 | 1 to 100 | O=c1[nH]c(C(F)c2ccccc2)nc2c1cnn2C1CCOCC1 (racemic) [Example 12]
96 | 101 to 1200 | CC(c1ccccc1)c1nc2c(cnn2C2CCOCC2)c(=O)[nH]1 (racemic) [Example 14]
92 | 101 to 1200 | CC(C)(C)OC(=O)N1CCC(n2ncc3c(=O)[nH]c(Cc4ccccc4)nc32)C1 (racemic) [Example 15]
86 | 101 to 1200 | CC(C)(C)OC(=O)N1CCC(n2ncc3c(=O)[nH]c(CC4CCC4)nc32)C1 (racemic) [Example 16]
100 | 1 to 100 | CC(C)(C)OC(=O)N1CCCC(n2ncc3c(=O)[nH]c(CC4CCCC4)nc32)C1 (racemic) [Example 17]
99 | 1 to 100 | CC(C)(C)OC(=O)N1CCCC(n2ncc3c(=O)[nH]c(Cc4ccccc4)nc32)C1 (racemic) [Example 18]
99 | 1 to 100 | CC(C)(C)OC(=O)N1CCCC(n2ncc3c(=O)[nH]c(Cc4ccccc4OC(F)(F)F)nc32)C1 (racemic) [Example 19]
98 | 1 to 100 | CC(C)(C)OC(=O)N1CCCC(n2ncc3c(=O)[nH]c(Cc4ccccn4)nc32)C1 (racemic) [Example 20]
97 | 101 to 1200 | CCC(Cc1nc2c(cnn2C2CCCN(C(=O)OC(C)(C)C)C2)c(=O)[nH]1)C(F)(F)F (racemic) [Example 21]
98 | 1 to 100 | CC(C)(C)OC(=O)N1CCCC(n2ncc3c(=O)[nH]c(Cc4cccc(C(F)(F)F)c4)nc32)C1 (racemic) [Example 22]
99 | 1 to 100 | CC(C)(C)OC(=O)N1CCCC(n2ncc3c(=O)[nH]c(Cc4ccccc4F)nc32)C1 (racemic) [Example 23]
100 | 1 to 100 | CCOc1ccccc1Cc1nc2c(cnn2C2CCCN(C(=O)OC(C)(C)C)C2)c(=O)[nH]1 (racemic) [Example 30]
98 | 1 to 100 | CC(C)Cc1nc2c(cnn2C2CCCN(C(=O)OC(C)(C)C)C2)c(=O)[nH]1 (racemic) [Example 31]

inhibition at 10 µM [%] | IC50 [nM] | SMILES
100 | 1 to 100 | CC(C)(C)OC(=O)N1CCCC(n2ncc3c(=O)[nH]c(CC4CCC4)nc32)C1 (racemic) [Example 32]
92 | 101 to 1200 | COc1ccc(C2CCCCC2Cc2nc3c(cnn3C3CCOCC3)c(=O)[nH]2)cn1 (racemic) [Example 40-4]
92 | 101 to 1200 | O=c1[nH]c(CC2CCCO2)nc2c1cnn2C1CCOCC1 (racemic) [Example 42]
100 | 1 to 100 | CC(Cc1nc2c(cnn2C2CCOCC2)c(=O)[nH]1)C(F)(F)F (racemic) [Example 46]
96 | 1 to 100 | CCC(Cc1nc2c(cnn2C2CCOCC2)c(=O)[nH]1)C(F)(F)F (racemic) [Example 48]
99 | 1 to 100 | O=c1[nH]c(CC2CCCC2)nc2c1cnn2C1CCOC1 (racemic) [Example 69]
99 | 1 to 100 | O=c1[nH]c(Cc2ccccc2OC(F)(F)F)nc2c1cnn2C1CCOC1 (racemic) [Example 70]
99 | 1 to 100 | O=c1[nH]c(Cc2ccc(F)c(Cl)c2)nc2c1cnn2C1CCOC1 (racemic) [Example 71]
97 | 1 to 100 | O=c1[nH]c(CC2CCC2)nc2c1cnn2C1CCOC1 (racemic) [Example 73]
95 | 1 to 100 | CC(C)Cc1nc2c(cnn2C2CCOC2)c(=O)[nH]1 (racemic) [Example 74]
98 | 1 to 100 | O=c1[nH]c(CC2CCCCC2)nc2c1cnn2C1CCOC1 (racemic) [Example 75]
98 | 1 to 100 | CCC(CC)Cc1nc2c(cnn2C2CCOC2)c(=O)[nH]1 (racemic) [Example 76]
99 | 101 to 1200 | O=c1[nH]c(Cc2cccnc2)nc2c1cnn2C1CCOC1 (racemic) [Example 78]
99 | 1 to 100 | O=c1[nH]c(Cc2ccc(F)cc2)nc2c1cnn2C1CCOC1 (racemic) [Example 79]
94 | 1 to 100 | O=c1[nH]c(CC2CC2)nc2c1cnn2C1CCOC1 (racemic) [Example 80]
100 | 1 to 100 | CCOc1ccccc1Cc1nc2c(cnn2C2CCOC2)c(=O)[nH]1 (racemic) [Example 82]
96 | 1 to 100 | COc1ccccc1Cc1nc2c(cnn2C2CCOC2)c(=O)[nH]1 (racemic) [Example 83]
99 | 1 to 100 | O=c1[nH]c(Cc2cccc(C(F)(F)F)c2)nc2c1cnn2C1CCOC1 (racemic) [Example 85]
95 | 101 to 1200 | O=c1[nH]c(Cc2ccccc2C(F)(F)F)nc2c1cnn2C1CCOC1 (racemic) [Example 86]
86 | 101 to 1200 | Cc1cccnc1Cc1nc2c(cnn2C2CCOC2)c(=O)[nH]1 (racemic) [Example 87]
96 | 1 to 100 | N#Cc1ccccc1Cc1nc2c(cnn2C2CCOC2)c(=O)[nH]1 (racemic) [Example 88]

inhibition at 10 µM [%] | IC50 [nM] | SMILES
95 | 101 to 1200 | N#Cc1cccc(Cc2nc3c(cnn3C3CCOC3)c(=O)[nH]2)c1 (racemic) [Example 89]
100 | 1 to 100 | O=c1[nH]c(CC2CCCC2)nc2c1cnn2C1CCCOC1 (racemic) [Example 90]
99 | 1 to 100 | O=c1[nH]c(Cc2ccccc2OC(F)(F)F)nc2c1cnn2C1CCCOC1 (racemic) [Example 91]
98 | 1 to 100 | CC(C)Cc1nc2c(cnn2C2CCCOC2)c(=O)[nH]1 (racemic) [Example 92]
97 | 1 to 100 | CCOc1ccccc1Cc1nc2c(cnn2C2CCCOC2)c(=O)[nH]1 (racemic) [Example 93]
96 | 101 to 1200 | O=c1[nH]c(Cc2ccccn2)nc2c1cnn2C1CCCOC1 (racemic) [Example 94]
99 | 1 to 100 | O=c1[nH]c(CC2CCC2)nc2c1cnn2C1CCCOC1 (racemic) [Example 96]
98 | 1 to 100 | O=c1[nH]c(Cc2ccccc2C(F)(F)F)nc2c1cnn2C1CCCOC1 (racemic) [Example 97]
97 | 1 to 100 | N#Cc1cccc(Cc2nc3c(cnn3C3CCCOC3)c(=O)[nH]2)c1 (racemic) [Example 98]
96 | 1 to 100 | O=c1[nH]c(CC2CC2)nc2c1cnn2C1CCCOC1 (racemic) [Example 99]
93 | 101 to 1200 | Cc1cccnc1Cc1nc2c(cnn2C2CCCOC2)c(=O)[nH]1 (racemic) [Example 100]
98 | 1 to 100 | O=c1[nH]c(Cc2ccc(F)cc2)nc2c1cnn2C1CCCOC1 (racemic) [Example 101]
100 | 1 to 100 | O=c1[nH]c(Cc2ccc(F)c(Cl)c2)nc2c1cnn2C1CCCOC1 (racemic) [Example 102]
99 | 1 to 100 | O=c1[nH]c(CC2CCCCC2)nc2c1cnn2C1CCCOC1 (racemic) [Example 103]
95 | 101 to 1200 | CC1(C)CC(n2ncc3c(=O)[nH]c(CC4CCCC4)nc32)CCO1 (racemic) [Example 104]
84 | 101 to 1200 | CCOc1ccccc1Cc1nc2c(cnn2C2CCOC(C)(C)C2)c(=O)[nH]1 (racemic) [Example 105]
87 | 101 to 1200 | CC(C)Cc1nc2c(cnn2C2CCOC(C)(C)C2)c(=O)[nH]1 (racemic) [Example 106]
89 | 101 to 1200 | CC1(C)CC(n2ncc3c(=O)[nH]c(CC4CCC4)nc32)CCO1 (racemic) [Example 108]
88 | 101 to 1200 | CC1CC(n2ncc3c(=O)[nH]c(Cc4ccccn4)nc32)CCO1 (racemic) [Example 111]
97 | 1 to 100 | CC1CC(n2ncc3c(=O)[nH]c(CC4CCCC4)nc32)CCO1 (racemic) [Example 112]
92 | 101 to 1200 | CC1CC(n2ncc3c(=O)[nH]c(Cc4ccccc4C(F)(F)F)nc32)CCO1 (racemic) [Example 113]
